Data: article PMC12851007 (Angewandte Chemie (International Ed. in English), 2025)
Where a SMILES comes first, the peptide text is derived from it.

Assay: CF dye efflux assay, EYPC vesicles
Format: biochemical
Settings: 97 mM NaCl, pH 7.5, 25 °C, n = 1; for Y30µM, membrane activity, CF assay: 30 µM peptide, 25 µM EYPC⸧CF-LUVs (inside 50 mM CF) in 10 mM Hepes, fluorescence λexc 492/λem 517 nm, peptide at 60 s, TX-100 at 600 s, fractional activity
Excerpt: Time-dep endent fluores cence intensit y traces, I (t), were subsequentl y normalized to fractional intensities, If(t), using equation (1). Therein, I 0 is the intensity just before addition of peptide and I ∞ is the constant intensit y after addition of the calibration cockt ail.
IIf (tt ) = II (tt )−II0II∞ − II0 (1)
The concentration-dependent fractional intensities just before the addition of the calibration cocktail, If, were then normalized to fractional membrane activities, Y, using equation (2).
Therein, If,0 is the fractional intensit y just before addition of the calibration cocktail in absence of peptide and I f,∞ is the constant fractional intensity after addition of the calibration cocktail.
YY = IIf − IIf,0IIf,∞ − IIf,0 (2)
The fractional membrane activities, Y, were subsequently plotted against the peptide concentration, c, and analysed using the Hill equation (3) to obtain the effective molar concentration, EC50, and the Hill coefficient, n. Y0 and Y ma x are the fractional membrane activities in absen ce o f p eptide and at max imal peptide concent rations. For peptides with too little activity to determine Y ma x ex perimentall y, Y max was fixed at 1.0 during fitting.
YY = YY0 + YYmax − YY0nn (3)
Vesicle preparation. 100 µ L of a solution of 25 mg/ml of POPC in chloroform or 200 µ L of a solution of 25 mg/ml of EYPC in chloroform was purged with a stream of nitrogen and dried overnight under high vacuum. The thin lipid film was reh ydrated with 1ml of reh yd ration buffer (= inside buffer, see Table S3 ) b y agitation at room temperature for 30 min and then subjected to 5 freeze- thaw cycles (freezing in liquid nitrogen and thawing at 40 °C).
Subsequently, the liposome suspension was extruded ≥ 15 times through a polycarbonate membrane (pore size 100 nm). Extravesicular components were then removed by size exclusion chromatography using a 1.5 × 12 cm polyprop ylene column (Bio- Rad, German y) with 1.0 g Sephad ex G-50 (medium) as a stationa r y ph ase and the resp ectiv e outside buffer for […]
Ta b l e S 3. Combinations of inside and outside buffer for CF -LUVs.
No. Lipid Inside buffer = rehydration buffer Outside buffer
(1) EYPC 10 mM Hepes, 50 mM CF, pH 7.5 10 mM Hepes, 97 mM NaCl, pH 7.5
(2) POPC 10 mM Hepes, 50 mM CF, pH 7.5 10 mM Hepes, 97 mM NaCl, pH 7.5
(3) POPC 10 mM Hepes, 50 mM CF, pH 7.5 10 mM Hepes, 175 mM glucose, pH 7.5 [a] [a] Glucose b uffers (183 mOsm/L at 25 °C) were used within one week after preparation.
Vesicle quality control. The size distribution of the liposomes was confirmed by DLS to be unimodal and avera ge ve sicles diameters wer e in the ran ge from 115 to 130 nm. The final lipid content in the liposome s uspension after prep ar ation and sep aration w as det ermined b y NMR. CF vesicles are comparabl y leak y and cont ain minor amounts of ex travesi cular CF after a f ew days. When the fluores cence chan ge after vesicl e lys is b y addition of 20 µ L 1.6% (wt/vol) TX-100 was less than a factor of four, the vesicle suspension was no longer used.
Assay protocol. An appropriate volume of the liposome stock solutions was diluted to 2 mL with outside buffer in a 10 ×10 mm quartz glass cuvette to afford a phospholipid concentration of 25 µM. […] Subsequentl y, the time-dependent change in fluorescence intensity (C F: λ exc = 492 nm, λ em = 517 nm) was recorded during addition of 20 µL peptide stock solution of var ying concentrations at 60 s and 20µ L of a calibration cocktail (1. 6% […]

[1] = 25 µM lipid, EYPC⊃CF-LUVs, 10 mM Hepes, fractional activity at 590 s, Hill fit, error = SD of fit

Structure (SMILES): CC[C@H](C)[C@H](NC(=O)[C@H](CCCCN)NC(=O)[C@@H](NC(=O)[C@@H](N)CCC(N)=O)[C@@H](C)CC)C(=O)N[C@@H](Cc1c[nH]c2ccccc12)C(=O)N[C@@H](Cc1ccccc1)C(=O)N[C@@H](CCC(N)=O)C(=O)N[C@@H](CC(N)=O)C(=O)N[C@@H](CCCNC(=N)N)C(=O)N[C@@H](CCCNC(=N)N)C(=O)N[C@@H](CCSC)C(=O)N[C@@H](CCCCN)C(=O)N[C@@H](Cc1c[nH]c2ccccc12)C(=O)N[C@@H](CCCCN)C(=O)N[C@@H](CCCCN)C(=O)O (H-QIKIWFQNRRMKWKK-OH)
- EC50, CF assay, EYPC [1]: too low to determine
- Y30µM, membrane activity, CF assay: 0.14

Structure (SMILES): CC(C)C[C@H](NC(=O)[C@H](CC(C)C)NC(=O)[C@H](CCCNC(=N)N)NC(=O)[C@@H](N)CC(C)C)C(=O)N[C@@H](CCCNC(=N)N)C(=O)N[C@@H](Cc1c[nH]c2ccccc12)C(N)=O [LRLLRW] (H-LRLLRW-NH2)
- Y30µM, membrane activity, CF assay: 0.23

Structure (SMILES): CC(C)[C@H](NC(=O)[C@H](CCCCN)NC(=O)[C@H](CCCNC(=N)N)NC(=O)[C@H](CCCCN)NC(=O)[C@H](CCCCN)NC(=O)[C@H](CCCCN)NC(=O)[C@@H]1CCCN1C(=O)[C@H](CCC(N)=O)NC(=O)[C@H](CO)NC(=O)[C@H](Cc1c[nH]c2ccccc12)NC(=O)[C@H](CC(=O)O)NC(=O)[C@@H](NC(=O)[C@H](Cc1c[nH]c2ccccc12)NC(=O)[C@H](Cc1c[nH]c2ccccc12)NC(=O)[C@@H](NC(=O)[C@H](CC(=O)O)NC(=O)[C@H](Cc1c[nH]c2ccccc12)NC(=O)[C@H](Cc1c[nH]c2ccccc12)NC(=O)[C@@H](NC(=O)[C@H](CC(=O)O)NC(=O)[C@@H](N)CCCCN)[C@@H](C)O)[C@@H](C)O)[C@@H](C)O)C(=O)O [Pep‐1] (H-KDTWWDTWWTDWSQPKKKRKV-OH)
- EC50 [1]: 35 ± 1 µM
- Y30µM, membrane activity, CF assay: 0.46
